ChEMBL document CHEMBL1143401, “New small-molecule synthetic antimycobacterials” (Antimicrob Agents Chemother, 2005)
Values after ≈ are worked out from the molar mass of the structure shown.

Tests used:
[1] = system: Mycobacterium tuberculosis; experiment: Antimycobacterial activity against Mycobacterium tuberculosis; assay type: functional
[2] = Toxicity assessed as haemolysis in RBC; assay type: cell-based, Erythrocyte; details: red blood cells (RBC); read-out: LD50 (the source's name)
[3] = system: Mycobacterium tuberculosis; experiment: Antimycobacterial activity against Mycobacterium tuberculosis H37Rv; assay type: functional
[4] = Selectivity index, ratio of MIC for Mycobacterium tuberculosis to cytotoxicity to […] V79 cells; assay type: functional
[5] = system: Mycobacterium tuberculosis; experiment: Antimycobacterial activity against Mycobacterium tuberculosis H37Ra; assay type: functional
[6] = Selectivity index, ratio of MIC for Mycobacterium tuberculosis to cytotoxicity to african green monkey Vero cells; assay type: functional
[7] = target: T1, Enoyl-[acyl-carrier-protein] reductase [NADH] (Mycobacterium tuberculosis) (UniProt P9WGR1); experiment: Inhibition of Mycobacterium tuberculosis InhA at 40 uM
T1 sequence (whole entry): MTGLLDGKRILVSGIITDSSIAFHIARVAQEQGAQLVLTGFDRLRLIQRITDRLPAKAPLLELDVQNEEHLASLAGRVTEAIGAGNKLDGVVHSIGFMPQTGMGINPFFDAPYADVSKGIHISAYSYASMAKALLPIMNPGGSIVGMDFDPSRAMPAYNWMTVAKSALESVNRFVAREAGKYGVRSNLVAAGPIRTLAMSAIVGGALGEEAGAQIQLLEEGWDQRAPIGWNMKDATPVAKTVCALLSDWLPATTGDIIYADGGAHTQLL

[8] = target: T2, Cell division protein FtsZ (Mycobacterium tuberculosis) (UniProt P9WN95); experiment: Inhibition of Mycobacterium tuberculosis FtsZ
T2 sequence (whole entry): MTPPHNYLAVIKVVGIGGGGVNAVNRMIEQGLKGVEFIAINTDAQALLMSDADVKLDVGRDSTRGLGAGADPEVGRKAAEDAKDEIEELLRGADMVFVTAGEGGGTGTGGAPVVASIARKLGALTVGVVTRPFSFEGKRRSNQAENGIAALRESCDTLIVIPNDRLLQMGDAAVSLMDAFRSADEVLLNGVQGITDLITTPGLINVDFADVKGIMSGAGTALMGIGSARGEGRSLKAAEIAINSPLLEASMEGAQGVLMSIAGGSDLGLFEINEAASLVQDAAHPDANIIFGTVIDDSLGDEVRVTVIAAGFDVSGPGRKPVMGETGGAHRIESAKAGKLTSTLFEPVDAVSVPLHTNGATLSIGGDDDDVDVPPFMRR

SMILES | MIC [1] [µg/mL] | further results
CC(=O)/C(=C/C=C/[C@@H](OCc1ccccc1)[C@H](COCc1ccccc1)OCc1ccccc1)CCl | 3.1 (≈ 6.14 µM) | –
N#Cc1c(N2CCN(c3ccc([N+](=O)[O-])cc3)CC2)[n+]([O-])c2ccccc2[n+]1[O-] | 0.1 (≈ 0.255 µM) | –
O=C(COc1cnccn1)N/N=c1\scc(-c2ccc(Br)cc2)n1-c1ccc(Cl)cc1[N+](=O)[O-] | 0.3 (≈ 0.534 µM) | HC50 [2]: > 500 µg/mL
[H][C@@]12CC[C@H](C(C)CCC(N)=O)[C@@]1(C)CC[C@]1([H])[C@@]3(C)CC[C@]4(C[C@@]3([H])C[C@@H](OC(C)=O)[C@@]21[H])OOC1(CC[C@@H](C)CC1)OO4 (stereo partly drawn) | 3.12 (≈ 5.42 µM) | –
CCCSc1nc(Cl)c(C#N)c(-c2ccc(F)cc2)n1 | 0.78 (≈ 2.53 µM) | –
OC12CCCC(C1)SC(c1ccccc1)=N2 (stereo not drawn) | ≤ 6.25 | –
CC(C)c1ccc(-c2c(N)nnc3c2c2ccccc2n3C)cc1 | 1.42 (≈ 4.49 µM) | –
CC1(C)O[C@H]2OC(COCC(O)CNCCCCCCCCCCCCNCC(O)COCC3O[C@@H]4OC(C)(C)O[C@@H]4[C@H]4OC(C)(C)O[C@@H]34)[C@@H]3OC(C)(C)O[C@@H]3[C@H]2O1 (stereo partly drawn) | 1.56 (≈ 1.87 µM) | –
CN(C)S(=O)(=O)n1cnc2c(=S)[nH]cnc21 | 0.78 (≈ 3.01 µM) | –
CN(C)C/C=C(\c1ccc(Br)cc1)c1ccc(-c2ccccc2)cc1 | 1.6 (≈ 4.08 µM) | MIC [3]: 1.6 µg/mL (≈ 4.08 µM); Selectivity Index [4]: <2; MIC [5]: 1.6 µg/mL (≈ 4.08 µM)
COc1ccc(C(=O)Nc2ccc(C(=O)NN3C(=O)CSC3c3ccc(F)cc3)cc2)cc1 (stereo not drawn) | 6.25 (≈ 13.4 µM) | –
CCCCCCCCCCNC[C@H]1O[C@H](O[C@H]2O[C@H](CNCCCCCCCCCC)[C@@H](O)[C@H](O)[C@H]2O)[C@H](O)[C@@H](O)[C@@H]1O | 1.3 (≈ 2.09 µM) | –
COc1nc2ccc(Br)cc2cc1[C@@H](c1ccccc1)[C@@](O)(CCN(C)C)c1cccc2ccccc12 [BEDAQUILINE] | 0.03 (≈ 0.054 µM) | –
Clc1nc(C2CCCO2)c2ncn(Cc3ccccc3)c2n1 (stereo not drawn) | 0.78 (≈ 2.48 µM) | Selectivity Index [6]: 10.6
COC(=O)c1ccccc1S(=O)(=O)NC(=O)Nc1nc(C)cc(C)n1 [SULFOMETURON METHYL] | 0.3 (≈ 0.823 µM) | –
O=[N+]([O-])c1c[nH]cc1-c1ccc(Cl)cc1Cl | 1 (≈ 3.89 µM) | –
c1ccc(-c2ccc(CNc3cccc(-c4c[nH]cn4)c3)cc2)cc1 | 4 (≈ 12.3 µM) | Selectivity Index [6]: 16

SMILES | MIC [1] [µg/mL] | further results
O=[N+]([O-])c1ccc(-c2cnn(-c3nccc(C(F)(F)F)n3)c2)c([N+](=O)[O-])c1 | 2.5 (≈ 6.57 µM) | MIC [3]: 2.5 µg/mL (≈ 6.57 µM); inhibition [7]: 91%
Cc1ccc2nc(SCc3cc([N+](=O)[O-])cc([N+](=O)[O-])c3)[nH]c2c1 | 1.3 (≈ 3.78 µM) | –
CCOC(=O)Nc1cc(NCCCCN(CC)CC)c2nc(-c3ccccc3)c(-c3ccccc3)nc2n1 | 0.15 (≈ 0.293 µM) | ID50 [8]: 52 µM
O=[N+]([O-])c1cn2c(n1)OC[C@@H](OCc1ccc(OC(F)(F)F)cc1)C2 [PRETOMANID] | 0.13 (≈ 0.362 µM) | –
CC1Nc2nc(NC(=O)Oc3ccccc3)cc(N)c2N=C1c1ccccc1 (stereo not drawn) | 1.3 (≈ 3.48 µM) | –
S=c1oc2c(Cl)cc(Cl)cc2c(=S)n1-c1cccc(Cl)c1 | 4 (≈ 10.7 µM) | –
CCCCOc1ccc2nc(C)cc(N/N=C/c3cccc4c(OC)cccc34)c2c1 | 0.78 (≈ 1.89 µM) | –
Cc1c(CN2CCN(C)CC2)cc(-c2ccc(Cl)cc2)n1-c1ccc(Cl)cc1 | 0.7 (≈ 1.69 µM) | Selectivity Index [6]: 5.6
CCCCCCCCCCCCCCCCN[C@H](CC(=O)OCC)[C@@H]1O[C@@H]2OC(C)(C)O[C@@H]2C1OC (stereo partly drawn) | 3.12 (≈ 6.07 µM) | –
CCCCCCCCCCS(=O)(=O)CC(N)=O | 0.75 (≈ 2.85 µM) | –
O=C(Nc1ncccc1[N+](=O)[O-])c1c(O)cccc1Cl | < 1 | –
CC(=O)NC[C@H]1CN(c2ccc(N3CCSCC3)c(F)c2)C(=O)O1 [SUTEZOLID] | ≤ 0.125 | –
CCCCCCCCCCCCCCCCOCCCCOP(=O)(O)C[C@@H]1O[C@H](CO)[C@@H](O)[C@@H]1O | 3.13 (≈ 5.97 µM) | –
CC(=O)NCCCC[C@H](OC(C)=O)[C@@H](COC(C)=O)OC(C)=O | ≤ 6.25 | –
c1ccc(-c2ccc(CNc3ccc(CN4CCSCC4)cc3)cc2)cc1 | 0.5 (≈ 1.33 µM) | –
NS#Cc1cc(SCc2ccccc2F)ccn1 | 1.2 (≈ 4.31 µM) | –
